Experimental findings from article PMC9030254, “Target Hopping from Protein Kinases to PXR: Identification of Small-Molecule Protein Kinase Inhibitors as Selective Modulators of Pregnane X Receptor from TüKIC Library” (Cells, 2022) are described below.

Common to all, as to assay: Kinase profiling
What all share (format): biochemical

The target of one experiment is T1, CDC42BPA (Homo sapiens, UniProt Q5VT25).
T1 construct: purchased ProQinase (Freiburg, Germany)
The method, then:
(§1) The analysis was performed by ProQinase (Freiburg, Germany).

A further experiment addresses T2, MEKK3 (Homo sapiens, UniProt Q99759).
T2 construct: purchased ProQinase (Freiburg, Germany)
T2 sequence (Q99759 1-626): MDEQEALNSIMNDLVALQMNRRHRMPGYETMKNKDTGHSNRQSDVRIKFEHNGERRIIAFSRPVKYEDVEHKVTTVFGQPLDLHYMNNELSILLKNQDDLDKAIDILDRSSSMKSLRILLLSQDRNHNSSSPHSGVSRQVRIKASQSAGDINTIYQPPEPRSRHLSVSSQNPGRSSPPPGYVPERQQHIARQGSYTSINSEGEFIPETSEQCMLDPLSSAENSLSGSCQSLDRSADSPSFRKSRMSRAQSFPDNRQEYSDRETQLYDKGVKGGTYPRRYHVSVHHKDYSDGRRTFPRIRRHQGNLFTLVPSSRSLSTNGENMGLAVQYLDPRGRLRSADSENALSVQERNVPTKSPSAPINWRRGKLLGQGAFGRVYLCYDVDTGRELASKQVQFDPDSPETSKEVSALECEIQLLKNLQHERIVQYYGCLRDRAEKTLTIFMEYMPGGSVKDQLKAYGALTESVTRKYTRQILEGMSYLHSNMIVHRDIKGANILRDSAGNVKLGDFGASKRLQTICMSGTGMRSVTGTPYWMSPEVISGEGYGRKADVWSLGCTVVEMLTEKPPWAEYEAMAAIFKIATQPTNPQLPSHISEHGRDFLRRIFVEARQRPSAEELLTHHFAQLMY
The method, then:
as §1

For the next experiment, the target named is T3, DYRK2 (Homo sapiens, UniProt Q92630).
T3 construct: purchased ProQinase (Freiburg, Germany)
T3 sequence (Q92630 1-601): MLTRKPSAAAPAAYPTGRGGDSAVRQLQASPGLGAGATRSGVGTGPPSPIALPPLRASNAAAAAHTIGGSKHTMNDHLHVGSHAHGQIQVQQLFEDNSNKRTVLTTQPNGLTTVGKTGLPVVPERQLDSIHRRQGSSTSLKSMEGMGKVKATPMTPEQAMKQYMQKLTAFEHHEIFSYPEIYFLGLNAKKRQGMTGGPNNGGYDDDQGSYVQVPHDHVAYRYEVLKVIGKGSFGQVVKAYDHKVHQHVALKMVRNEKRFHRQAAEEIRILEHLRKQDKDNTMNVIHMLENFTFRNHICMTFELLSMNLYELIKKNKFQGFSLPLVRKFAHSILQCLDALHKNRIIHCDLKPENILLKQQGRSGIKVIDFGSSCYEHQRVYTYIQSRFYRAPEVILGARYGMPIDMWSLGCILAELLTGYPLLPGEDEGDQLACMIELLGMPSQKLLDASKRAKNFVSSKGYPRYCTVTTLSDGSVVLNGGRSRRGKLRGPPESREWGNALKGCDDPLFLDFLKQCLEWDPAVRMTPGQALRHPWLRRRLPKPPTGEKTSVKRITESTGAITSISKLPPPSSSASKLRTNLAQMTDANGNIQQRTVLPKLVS
The method, then:
as §1

A further experiment has as its target T4, ZAP70 (Homo sapiens, UniProt P43403).
T4 construct: purchased ProQinase (Freiburg, Germany)
T4 sequence (P43403 1-619): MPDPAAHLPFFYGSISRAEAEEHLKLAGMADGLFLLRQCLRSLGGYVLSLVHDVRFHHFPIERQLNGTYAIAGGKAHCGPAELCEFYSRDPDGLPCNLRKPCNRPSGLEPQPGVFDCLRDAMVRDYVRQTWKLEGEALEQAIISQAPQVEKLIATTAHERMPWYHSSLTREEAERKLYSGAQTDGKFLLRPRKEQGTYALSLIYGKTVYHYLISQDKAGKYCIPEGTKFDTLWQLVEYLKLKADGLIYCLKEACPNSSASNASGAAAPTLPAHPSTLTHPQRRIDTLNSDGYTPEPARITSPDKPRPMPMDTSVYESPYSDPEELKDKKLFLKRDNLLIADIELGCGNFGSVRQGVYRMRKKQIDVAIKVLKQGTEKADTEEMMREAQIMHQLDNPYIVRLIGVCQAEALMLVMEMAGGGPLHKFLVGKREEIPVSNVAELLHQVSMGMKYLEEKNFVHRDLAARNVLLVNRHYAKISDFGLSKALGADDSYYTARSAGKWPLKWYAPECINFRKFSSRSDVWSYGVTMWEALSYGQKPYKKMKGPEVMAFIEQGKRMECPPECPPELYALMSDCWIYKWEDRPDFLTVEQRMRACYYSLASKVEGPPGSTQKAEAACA
The method, then:
as §1

A further experiment addresses T5, ARK5 (Homo sapiens, UniProt O60285).
T5 construct: purchased ProQinase (Freiburg, Germany)
T5 sequence (O60285 1-661): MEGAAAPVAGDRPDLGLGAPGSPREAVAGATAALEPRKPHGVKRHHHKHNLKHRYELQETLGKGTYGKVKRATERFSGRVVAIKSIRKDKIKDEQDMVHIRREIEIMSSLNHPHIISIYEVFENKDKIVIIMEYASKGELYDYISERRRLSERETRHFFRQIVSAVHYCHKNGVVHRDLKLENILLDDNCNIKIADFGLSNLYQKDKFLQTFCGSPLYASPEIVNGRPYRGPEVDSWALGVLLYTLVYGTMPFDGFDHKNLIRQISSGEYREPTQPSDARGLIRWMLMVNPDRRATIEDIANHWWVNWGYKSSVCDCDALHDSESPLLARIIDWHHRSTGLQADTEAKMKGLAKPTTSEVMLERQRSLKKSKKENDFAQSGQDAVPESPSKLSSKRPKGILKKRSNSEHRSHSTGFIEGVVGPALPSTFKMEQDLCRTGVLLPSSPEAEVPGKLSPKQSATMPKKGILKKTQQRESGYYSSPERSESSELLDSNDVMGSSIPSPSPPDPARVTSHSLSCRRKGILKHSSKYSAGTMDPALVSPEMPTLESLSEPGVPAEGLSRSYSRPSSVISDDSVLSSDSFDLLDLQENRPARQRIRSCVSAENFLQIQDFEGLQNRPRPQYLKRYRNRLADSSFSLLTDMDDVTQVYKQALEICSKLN
How it is done:
as §1

T1 sequence (Q5VT25 whole entry): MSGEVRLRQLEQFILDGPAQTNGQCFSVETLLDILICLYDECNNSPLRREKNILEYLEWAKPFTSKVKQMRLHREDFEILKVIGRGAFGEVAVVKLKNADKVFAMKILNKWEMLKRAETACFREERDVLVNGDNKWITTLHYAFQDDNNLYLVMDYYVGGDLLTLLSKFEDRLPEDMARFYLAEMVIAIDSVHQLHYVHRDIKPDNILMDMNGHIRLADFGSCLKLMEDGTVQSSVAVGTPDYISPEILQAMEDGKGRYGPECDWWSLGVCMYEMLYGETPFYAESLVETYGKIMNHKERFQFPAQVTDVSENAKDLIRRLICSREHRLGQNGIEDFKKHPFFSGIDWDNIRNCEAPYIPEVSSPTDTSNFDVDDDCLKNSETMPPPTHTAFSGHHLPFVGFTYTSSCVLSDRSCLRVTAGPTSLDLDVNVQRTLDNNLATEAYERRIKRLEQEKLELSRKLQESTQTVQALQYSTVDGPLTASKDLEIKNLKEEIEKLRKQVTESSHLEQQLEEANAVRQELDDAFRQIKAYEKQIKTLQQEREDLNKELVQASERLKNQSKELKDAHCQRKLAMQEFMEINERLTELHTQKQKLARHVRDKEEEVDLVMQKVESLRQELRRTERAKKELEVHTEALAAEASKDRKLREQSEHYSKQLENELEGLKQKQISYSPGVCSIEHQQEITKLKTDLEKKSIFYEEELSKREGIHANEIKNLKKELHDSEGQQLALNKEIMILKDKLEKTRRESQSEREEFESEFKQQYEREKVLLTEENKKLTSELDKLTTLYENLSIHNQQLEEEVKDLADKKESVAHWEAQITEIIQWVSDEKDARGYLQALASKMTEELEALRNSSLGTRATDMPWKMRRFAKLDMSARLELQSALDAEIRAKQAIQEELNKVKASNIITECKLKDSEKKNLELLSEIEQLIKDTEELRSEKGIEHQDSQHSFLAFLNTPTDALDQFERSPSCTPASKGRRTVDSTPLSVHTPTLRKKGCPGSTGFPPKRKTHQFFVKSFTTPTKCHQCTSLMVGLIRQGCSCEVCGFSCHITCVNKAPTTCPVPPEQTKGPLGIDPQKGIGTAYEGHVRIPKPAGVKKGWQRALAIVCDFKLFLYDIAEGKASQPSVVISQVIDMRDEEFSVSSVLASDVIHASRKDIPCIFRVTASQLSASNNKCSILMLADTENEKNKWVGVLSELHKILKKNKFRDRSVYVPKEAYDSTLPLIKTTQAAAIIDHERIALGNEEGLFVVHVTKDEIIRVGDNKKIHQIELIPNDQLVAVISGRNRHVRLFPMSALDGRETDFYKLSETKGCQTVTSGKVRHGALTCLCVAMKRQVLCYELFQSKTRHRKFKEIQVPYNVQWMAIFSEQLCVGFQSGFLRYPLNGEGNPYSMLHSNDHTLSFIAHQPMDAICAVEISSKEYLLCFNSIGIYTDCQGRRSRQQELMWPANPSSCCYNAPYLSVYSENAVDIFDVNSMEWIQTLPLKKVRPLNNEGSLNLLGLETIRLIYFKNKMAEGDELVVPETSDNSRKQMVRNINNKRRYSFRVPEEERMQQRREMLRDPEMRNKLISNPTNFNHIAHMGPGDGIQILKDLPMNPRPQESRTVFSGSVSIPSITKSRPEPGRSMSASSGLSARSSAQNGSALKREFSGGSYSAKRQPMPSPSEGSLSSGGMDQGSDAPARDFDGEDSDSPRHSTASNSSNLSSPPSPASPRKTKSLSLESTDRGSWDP

On to `O=C(Cc1ccccc1)Nc1ccc(F)c(Nc2ccc3c(c2)CCCCC3=O)c1` [Compound 100], for which the Residual activity on CDC42BPA (1.0E-05 M) is listed as 110 % of control; on CDC42BPA (1.0E-06 M), 114 % of control; at MEKK3 (1.0E-05 M), 104 % of control; at MEKK3 (1.0E-06 M), 95 % of control; on DYRK2 (1.0E-05 M), 91 % of control; at DYRK2 (1.0E-06 M) it was 89 % of control. The Residual activity at ZAP70 (1.0E-05 M) is reported as 103 % of control; at ZAP70 (1.0E-06 M), 118 % of control; on ARK5 (1.0E-05 M), 91 % of control; at ARK5 (1.0E-06 M), 90 % of control.
As to `O=C(Nc1ccc(F)c(Nc2ccc3c(c2)CCCCC3=O)c1)c1cccc(F)c1` [Compound 109], the Residual activity is listed as 116 % of control at CDC42BPA (1.0E-05 M); 103 % of control on CDC42BPA (1.0E-06 M); 102 % of control on MEKK3 (1.0E-05 M); 94 % of control at MEKK3 (1.0E-06 M); 92 % of control on DYRK2 (1.0E-05 M); 98 % of control at DYRK2 (1.0E-06 M). For the same compound, the Residual activity on ZAP70 (1.0E-05 M) is 91 % of control; on ZAP70 (1.0E-06 M), 114 % of control; on ARK5 (1.0E-05 M), 88 % of control; on ARK5 (1.0E-06 M), 92 % of control.
